Results: patent publication US8329645B2, “Polymyxin derivatives and uses thereof” (priority 2008, dated 2012)

How the values were obtained:
E. coli IH3080 [1] = assay: Sensitization to rifampin: growth inhibition around wells on LB plates containing rifampin; format: cell-based, Escherichia coli; conditions: in the absence of the compounds tested
E. coli CCUG41421 = assay: E-test MIC with or without NAB7061 (4 μg/ml), Mueller-Hinton agar; format: cell-based, Escherichia coli
Outline: (§1)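 MICs were read from antibiotic gradient strips applied according to the manufacturer's instructions.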

E. coli CCUG41422 = assay: as above; format: cell-based, Escherichia coli
Outline: as §1

E. coli CCUG41424 = assay: as above; format: cell-based, Escherichia coli
Outline: as §1

E. coli CCUG41425 = assay: as above; format: cell-based, Escherichia coli
Outline: as §1

E. coli CCUG41427 = assay: as above; format: cell-based, Escherichia coli
Outline: as §1

E. coli CCUG41429 = assay: as above; format: cell-based, Escherichia coli
Outline: as §1

E. coli CCUG41432 = assay: as above; format: cell-based, Escherichia coli
Outline: as §1

E. coli IH3080 [2] = assay: as above; format: cell-based, Escherichia coli
Outline: as §1

E. coli NCTC13351 = assay: as above; format: cell-based, Escherichia coli
Outline: as §1

E. coli NCTC13353 = assay: as above; format: cell-based, Escherichia coli
Outline: as §1

E. coli ATCC25922 = conditions: E. coli ATCC25922
Outline: as §1

K. pneumoniae ATCC13883 = conditions: K. pneumoniae ATCC13883
Outline: as §1

K. pneumoniae CCUG45421 = assay: E-test MIC with or without NAB7061 (4 μg/ml), Mueller-Hinton agar; format: cell-based, Klebsiella pneumoniae
Experimental: (§2) MICs were determined by using E-strips (Biodisk Ltd., Solna, Sweden) according to the manufacturer's instructions.
(§3) The strains originated from ATCC (11 strains), CCUG (11 strains), and NCTC (The National Collection of Type Cultures, Colindale, U.K.; 2 strains). Eight strains (the F-strains) were purchased from Mobidiag Ltd., Helsinki, Finland.

K. pneumoniae F136 = assay: as above; format: cell-based, Klebsiella pneumoniae
Experimental: as §2, §3

K. pneumoniae F144 = assay: as above; format: cell-based, Klebsiella pneumoniae
Experimental: as §2, §3

K. pneumoniae F145 = assay: as above; format: cell-based, Klebsiella pneumoniae
Experimental: as §2, §3

K. oxytoca ATCC13182 = assay: as above; format: cell-based, Klebsiella oxytoca
Experimental: as §2, §3

K. oxytoca CCUG51683 = assay: as above; format: cell-based, Klebsiella oxytoca
Experimental: as §2, §3

E. cloacae ATCC23355 = assay: as above; format: cell-based, Enterobacter cloacae
Outline: as §1

E. cloacae CCUG52947 = assay: as above; format: cell-based, Enterobacter cloacae
Outline: as §1

CO[C@H]1/C=C/O[C@@]2(C)Oc3c(C)c(O)c4c(O)c(c(/C=N/N5CCN(C)CC5)c(O)c4c3C2=O)NC(=O)/C(C)=C\C=C\[C@H](C)[C@H](O)[C@@H](C)[C@@H](O)[C@@H](C)[C@H](OC(C)=O)[C@@H]1C [Rifampin]
concentration of rifampin needed for the inhibitory effect (E. coli IH3080 [1]): 10 µg/mL
MIC of antibiotic in the presence of 4 μg/ml of NAB 7061 (E. coli CCUG41421): 0.032 to 0.064 µg/mL
Sensitization factor to antibiotic (MIC without / with 4 μg/ml of NAB 7061) (E. coli CCUG41422): 170-256
MIC of antibiotic in the presence of 4 μg/ml of NAB 7061 (E. coli CCUG41424): 0.064 to 0.094 µg/mL
Sensitization factor to antibiotic (MIC without / with 4 μg/ml of NAB 7061) (E. coli CCUG41424): 85-94
MIC of antibiotic in the presence of 4 μg/ml of NAB 7061 (E. coli CCUG41425): 0.016 to 0.023 µg/mL
Sensitization factor to antibiotic (MIC without / with 4 μg/ml of NAB 7061) (E. coli CCUG41425): 200-260
MIC of antibiotic in the presence of 4 μg/ml of NAB 7061 (E. coli CCUG41427): 0.032 to 0.064 µg/mL
Sensitization factor to antibiotic (MIC without / with 4 μg/ml of NAB 7061) (E. coli CCUG41427): 100-250
MIC of antibiotic in the presence of 4 μg/ml of NAB 7061 (E. coli CCUG41429): 0.032 µg/mL
MIC of antibiotic in the presence of 4 μg/ml of NAB 7061 (E. coli CCUG41432): 0.032 µg/mL
Sensitization factor to antibiotic (MIC without / with 4 μg/ml of NAB 7061) (E. coli CCUG41432): 180-250
MIC of antibiotic in the presence of 4 μg/ml of NAB 7061 (E. coli IH3080 [2]): 0.023 to 0.047 µg/mL
Sensitization factor to antibiotic (MIC without / with 4 μg/ml of NAB 7061) (E. coli IH3080 [2]): 170-350
MIC of antibiotic in the presence of 4 μg/ml of NAB 7061 (E. coli NCTC13351): 0.032 to 0.047 µg/mL
Sensitization factor to antibiotic (MIC without / with 4 μg/ml of NAB 7061) (E. coli NCTC13351): 340-500
MIC of antibiotic in the presence of 4 μg/ml of NAB 7061 (E. coli NCTC13353): 0.064 µg/mL
MIC of antibiotic in the presence of 4 μg/ml of NAB 7061 (E. coli ATCC25922): 0.016 to 0.047 µg/mL
Sensitization factor to antibiotic (MIC without / with 4 μg/ml of NAB 7061) (E. coli ATCC25922): 250-750
Sensitization factor to antibiotic (MIC without / with 4 μg/ml of NAB 7061) (K. pneumoniae ATCC13883): 250-500
MIC of antibiotic in the presence of 4 μg/ml of NAB 7061 (K. pneumoniae CCUG45421): 2 to 3 µg/mL
Sensitization factor to antibiotic (MIC without / with 4 μg/ml of NAB 7061) (K. pneumoniae CCUG45421): 10-20
MIC of antibiotic in the presence of 4 μg/ml of NAB 7061 (K. pneumoniae F136): 0.75 µg/mL
Sensitization factor to antibiotic (MIC without / with 4 μg/ml of NAB 7061) (K. pneumoniae F136): >43
MIC of antibiotic in the presence of 4 μg/ml of NAB 7061 (K. pneumoniae F144): 0.19 µg/mL
Sensitization factor to antibiotic (MIC without / with 4 μg/ml of NAB 7061) (K. pneumoniae F144): >170
MIC of antibiotic in the presence of 4 μg/ml of NAB 7061 (K. pneumoniae F145): 0.19 to 0.25 µg/mL
Sensitization factor to antibiotic (MIC without / with 4 μg/ml of NAB 7061) (K. pneumoniae F145): 170
MIC of antibiotic in the presence of 4 μg/ml of NAB 7061 (K. oxytoca ATCC13182): 0.032 to 0.047 µg/mL
Sensitization factor to antibiotic (MIC without / with 4 μg/ml of NAB 7061) (K. oxytoca ATCC13182): 680-750
MIC of antibiotic in the presence of 4 μg/ml of NAB 7061 (K. oxytoca CCUG51683): 0.012 to 0.023 µg/mL
Sensitization factor to antibiotic (MIC without / with 4 μg/ml of NAB 7061) (K. oxytoca CCUG51683): 700-2000
MIC of antibiotic in the presence of 4 μg/ml of NAB 7061 (E. cloacae ATCC23355): 0.008 to 0.016 µg/mL
Sensitization factor to antibiotic (MIC without / with 4 μg/ml of NAB 7061) (E. cloacae ATCC23355): 750-1500
MIC of antibiotic in the presence of 4 μg/ml of NAB 7061 (E. cloacae CCUG52947): 0.032 to 0.047 µg/mL
Sensitization factor to antibiotic (MIC without / with 4 μg/ml of NAB 7061) (E. cloacae CCUG52947): 500-1000
